Assay type in all cases: cell-based, rat
Assay [1] deals with PC12 cells. Description: Neural outgrowth of PC12 cells after consecutive seven-day incubation (Example 15, FIG. 3). The following applies: PC12 cells incubated for consecutive 7 days; CGs at 0.5 μM. The protocol: (§1) The immortal PC12 cell line is one of the most investigated systems in neuronal differentiation. In the presence of nerve growth factor these cells differentiate to neuronal cells. PC12 cells originated from rat pheochromocytoma were grown as monolayers in Eagle's medium (EM) supplemented with 10% fetal calf serum, 50 μg/ml gentamicin and 5 mM glutamine, in a humidified incubator buffered with 5% CO2, at 37° C. The culture medium is changed every four days and the cells are passaged every eight days and performed confluent monolayers (1.5×10^6 in a 10 cm plate or 10^5 cells per well in 24 wells plate). PC12 cells are originally round cells which, following several days in the presence of nerve growth factor (NGF) process nerves. Upon withdrawal of the NGF, the nerves retract and a process of apoptosis is initiated in the cells.
The cells were incubated with the various factors for a consecutive period of seven days. Neural outgrowth was monitored and microscopic photographs were taken following the seven day incubation with the above factors.

For assay [2], the system named is PC12 cells. Description: Neural outgrowth of PC12 cells after three-hour pulse and wash, photographed on day 7 (Example 14, FIG. 2). The following applies: for promotion of neuronal outgrowth (summary statement): PC12 adrenal tumorigenic cells in culture, after a short incubation period; for neural outgrowth (microscopic photographs): PC12 cells pulsed for three hours, washed, grown in growth medium without factor, day 7 after treatment. On the procedure: as §1
Cells were grown as described above and divided into groups which were each grown with one of the following:
The above factors were added to the cells for a period of three hours after which they were washed away from the cells. […] The neural outgrowth of the cells was monitored and microscopic photographs were taken on day seven after treatment with the above factors.

Assay [3] concerns PC12 cells. Description: Neuronal outgrowth of PC12 cells, factors in growth medium for 48 hours (Example 12, FIG. 1). The note with it: 48 hours in growth medium with factor, 1,3 cGP 1 μM, NGF 50 ng/ml, α glycerophosphate as control. The protocol: as §1
PC12 cells were grown in culture as explained above, the cells were divided into three groups and different factors were added to the growth medium of each group for 48 hours as follows: • Group A—α glycerophosphate. • Group B—nerve growth factor (NGF) at a concentration of 50 ng/ml. • Group C —1,3 cGP at a concentration of 1 μM.
The rate of neuronal growth in each of the above cultures was monitored and documented by microscopic photographs.

Assay [4] relates to PC12 cells. Description: Nerve rescue of NGF-differentiated PC12 cells after NGF withdrawal, 14-day culture (Example 19, FIG. 4). The protocol:
as §1
To study nerve rescue by 1,3 cPP, PC12 cells were incubated in tissue culture medium for a period of 14 days. Within this period, the cells were either grown in the presence of nerve growth factor (NGF) for different periods of times or were grown in the presence of 1,3, cPP for various periods of time. Neuronal differentiation and spread was examined in the various cells.

These results are taken from US6914056B1, “Pharmaceutical compositions comprising cyclic glycerophosphates and analogs thereof for promoting neural cell differentiation” (Yeda Research and Development Co., Ltd., priority 1999, dated 2005).

Entries after “also recorded” stand apart in the source; their conditions may differ.

For `O=P1(O)OCC(CO)O1` (centres unmarked) [1,2 cGP, 1,2 cyclic glycerophosphate], the “neural outgrowth (microscopic photographs)” value (shortened to “neural outgrowth”) in assay [1] was “neural outgrowth is observed to different extents”. For the same molecule, in assay [2], the “promotion of neuronal outgrowth (summary statement)” value is “capable of promoting neuronal outgrowth” and the “neural outgrowth” value is “Neural outgrowth is seen”.
`O=P(O)(O)OC(CO)CO` [βGP, β-Glycerophosphate, reference compound]: the “neural outgrowth” value in assay [1] is on record as “No neural outgrowth was observed”.
Consider `O=P1(O)OCC(O)CO1` (centres unmarked) [1,3 cGP, 1,3 cyclic glycerophosphate], for which the “neural outgrowth” value in assay [1] is “neural outgrowth is observed to different extents”; in assay [3] it was “neural outgrowth was clearly seen”; in assay [3] (listed as 1,3 GP) it was “Neuronal outgrowth is clearly seen”; in assay [2] it was “Neural outgrowth is seen”. For the same molecule, the “promotion of neuronal outgrowth (summary statement)” value in assay [2] is “capable of promoting neuronal outgrowth”.
Consider “phenyl 1,3 cyclic propanediol phosphate [phenyl-1,3 cPP]”, for which the figures for the “neural outgrowth” value in assay [1] and in assay [2] were “neural outgrowth is observed to different extents” and “Neural outgrowth is seen”, respectively.
As to `O=P(O)(O)OCC(O)CO` (stereo in doubt) [αGP, L-α-glycerophosphate, reference compound], the “neural outgrowth” value was “No neural outgrowth was observed” in assay [1] and “did not promote neural outgrowth” in assay [3].
On to “phenyl 1,3 cyclic glycerophosphate [phenyl-1,3 cGP]”, for which the “neural outgrowth” value in assay [1] is reported as “neural outgrowth is observed to different extents”; in assay [2], “Neural outgrowth is seen”.
As to `O=P1(O)OCCCO1` [1,3 cPP, 1,3 cyclic propanediol phosphate], in assay [4] (PC12 cells 7 days with NGF 50 ng/ml, then 7 days with 2 μM, 4 μM or 6 μM 1,3 cPP), the “rescue of the neuronal network from retraction” value was “partial to full rescue of the neuronal network”. In addition, the “neural outgrowth” value in assay [1] is “neural outgrowth is observed to different extents”; in assay [2], “Neural outgrowth is seen”.

B1: NGF: nerve growth factor, a growth factor that differentiates PC12 cells to neuronal cells (protein, UniProt P01139 122-241, looked up)
Beta-nerve growth factor: SSTHPVFHMGEFSVCDSVSVWVGDKTTATDIKGKEVTVLAEVNINNSVFRQYFFETKCRASNPVESGCRGIDSKHWNSYCTTTHTFVKALTTDEKQAAWRFIRIDTACVCVLSRKATRRG
In the case of B1, the “nerve retraction after NGF withdrawal” value in assay [4] (PC12 cells 7 days with NGF 50 ng/ml, then 7 days without NGF) is listed as “complete nerve retraction was observed”. In addition, in assay [4] (PC12 cells grown with NGF 50 ng/ml for full 14 days), the neuronal differentiation entry was “full neuronal differentiation”. The entries for the “neural outgrowth” value in assay [1], in assay [3] and in assay [2] were “neural outgrowth was seen; also recorded: extensive neural outgrowth is seen”, “neural outgrowth was clearly seen; also recorded: Neuronal outgrowth is clearly seen” and “did not promote any nerve generation”, respectively.
